Experiments:
[1] = molecular target: Sodium-dependent noradrenaline transporter (Homo sapiens, UniProt P23975); assay: GPCRScan assay: inhibition of NET; parameters: radioligand conc. used [nm] 1.3 – 5.0, parental cells stable HEK
[2] = molecular target: Muscarinic acetylcholine receptor M3 (Homo sapiens, UniProt P20309); assay: GPCRScan assay: inhibition of M3; parameters: radioligand conc. used [nm] 0.3 – 1.0, parental cells stable CHO
[3] = molecular target: Insulin-like growth factor 1 receptor (Homo sapiens) (UniProt P08069); assay: IGF-1R(h) Eurofins Kinase panel; details: Compound concentration 1.0 uM
[4] = molecular target: [Pyruvate dehydrogenase (acetyl-transferring)] kinase isozyme 2, mitochondrial (Homo sapiens) (UniProt Q15119); assay: PDHK2(h) Eurofins Kinase panel; details: Compound concentration 1.0 uM
[5] = molecular target: Cyclin-dependent kinase 1/cyclin B (Homo sapiens) (UniProt P06493+P14635+Q8WWL7+O95067); assay: CDK1/cyclinB(h) Eurofins Kinase panel; format: protein-complex assay; details: Compound concentration 1.0 uM
[6] = molecular target: Serine/threonine-protein kinase 26 (Homo sapiens) (UniProt Q9P289); assay: MST4(h) Eurofins Kinase panel; details: Compound concentration 1.0 uM
[7] = system: Tyrosine-protein kinase ABL1 (Homo sapiens), P00519 [Y253F]; details: Compound concentration 1000.0 nM
[8] = molecular target: Atypical kinase COQ8A, mitochondrial (Homo sapiens) (UniProt Q8NI60); details: Compound concentration 1000.0 nM
[9] = molecular target: 5'-AMP-activated protein kinase catalytic subunit alpha-2 (Homo sapiens) (UniProt P54646); details: Compound concentration 1000.0 nM
[10] = molecular target: Aurora kinase B (Homo sapiens) (UniProt Q96GD4); details: Compound concentration 1000.0 nM
[11] = molecular target: Tyrosine-protein kinase Blk (Homo sapiens) (UniProt P51451); details: Compound concentration 1000.0 nM
[12] = molecular target: Calcium/calmodulin-dependent protein kinase type 1D (Homo sapiens) (UniProt Q8IU85); details: Compound concentration 1000.0 nM
[13] = molecular target: Myotonin-protein kinase (Homo sapiens) (UniProt Q09013); details: Compound concentration 1000.0 nM
Sequence of Myotonin-protein kinase (Homo sapiens) (Q09013 whole entry): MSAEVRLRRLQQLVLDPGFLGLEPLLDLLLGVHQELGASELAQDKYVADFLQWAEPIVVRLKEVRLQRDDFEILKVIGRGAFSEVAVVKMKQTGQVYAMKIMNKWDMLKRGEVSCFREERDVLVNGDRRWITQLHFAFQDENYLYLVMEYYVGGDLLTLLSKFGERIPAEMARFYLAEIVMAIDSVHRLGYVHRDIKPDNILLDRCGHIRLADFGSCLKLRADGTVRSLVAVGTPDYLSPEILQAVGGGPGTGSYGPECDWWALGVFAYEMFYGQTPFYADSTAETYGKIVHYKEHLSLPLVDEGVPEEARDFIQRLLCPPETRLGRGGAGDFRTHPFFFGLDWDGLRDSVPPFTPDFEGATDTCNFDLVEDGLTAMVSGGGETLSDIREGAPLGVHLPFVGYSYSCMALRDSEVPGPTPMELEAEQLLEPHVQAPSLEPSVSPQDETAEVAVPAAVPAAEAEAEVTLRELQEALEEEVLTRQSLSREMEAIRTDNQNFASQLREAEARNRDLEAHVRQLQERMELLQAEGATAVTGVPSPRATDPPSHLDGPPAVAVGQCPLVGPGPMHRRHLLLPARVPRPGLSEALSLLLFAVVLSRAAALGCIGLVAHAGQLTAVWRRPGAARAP

[14] = system: Epidermal growth factor receptor (Homo sapiens), P00533 [UNDEFINED MUTATION]; details: Compound concentration 1000.0 nM
[15] = molecular target: Tyrosine-protein kinase Fes/Fps (Homo sapiens) (UniProt P07332); details: Compound concentration 1000.0 nM
[16] = molecular target: G protein-coupled receptor kinase 3 (Homo sapiens) (UniProt P35626); details: Compound concentration 1000.0 nM
[17] = molecular target: Homeodomain-interacting protein kinase 2 (Homo sapiens) (UniProt Q9H2X6); details: Compound concentration 1000.0 nM
[18] = molecular target: Inhibitor of nuclear factor kappa-B kinase subunit alpha (Homo sapiens) (UniProt O15111); details: Compound concentration 1000.0 nM
[19] = molecular target: Mitogen-activated protein kinase kinase kinase kinase 3 (Homo sapiens) (UniProt Q8IVH8); details: Compound concentration 1000.0 nM
[20] = molecular target: Mitogen-activated protein kinase kinase kinase kinase 4 (Homo sapiens) (UniProt O95819); details: Compound concentration 1000.0 nM
[21] = molecular target: MAP kinase-activated protein kinase 5 (Homo sapiens) (UniProt Q8IW41); details: Compound concentration 1000.0 nM
[22] = molecular target: Serine/threonine-protein kinase OSR1 (Homo sapiens) (UniProt O95747); details: Compound concentration 1000.0 nM
Sequence of Serine/threonine-protein kinase OSR1 (Homo sapiens) (O95747 2-527 limits assumed): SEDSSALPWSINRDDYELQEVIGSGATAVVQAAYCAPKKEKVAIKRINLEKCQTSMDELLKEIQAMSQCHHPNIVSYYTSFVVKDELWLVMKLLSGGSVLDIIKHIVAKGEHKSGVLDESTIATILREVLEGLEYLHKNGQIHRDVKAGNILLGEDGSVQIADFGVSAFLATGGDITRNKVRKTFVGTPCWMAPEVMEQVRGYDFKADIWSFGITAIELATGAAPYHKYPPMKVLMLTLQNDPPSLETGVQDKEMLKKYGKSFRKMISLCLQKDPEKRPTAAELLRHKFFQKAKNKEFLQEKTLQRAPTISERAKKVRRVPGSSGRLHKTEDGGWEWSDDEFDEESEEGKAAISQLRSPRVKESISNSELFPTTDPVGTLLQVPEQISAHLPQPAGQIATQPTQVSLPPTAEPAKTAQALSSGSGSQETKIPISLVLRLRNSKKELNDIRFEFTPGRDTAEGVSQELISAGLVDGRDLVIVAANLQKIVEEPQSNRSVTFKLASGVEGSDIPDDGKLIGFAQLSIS

[23] = molecular target: Serine/threonine-protein kinase PAK 2 (Homo sapiens) (UniProt Q13177); details: Compound concentration 1000.0 nM
[24] = molecular target: Cyclin-dependent kinase 2 homolog (Plasmodium falciparum (isolate 3D7)) (UniProt P61075); details: Compound concentration 1000.0 nM
[25] = system: Phosphatidylinositol 4,5-bisphosphate 3-kinase catalytic subunit alpha isoform (Homo sapiens), P42336 [E545A]; details: Compound concentration 1000.0 nM
[26] = molecular target: Serine/threonine-protein kinase PLK2 (Homo sapiens) (UniProt Q9NYY3); details: Compound concentration 1000.0 nM
[27] = molecular target: Protein-tyrosine kinase 2-beta (Homo sapiens) (UniProt Q14289); details: Compound concentration 1000.0 nM
Sequence of Protein-tyrosine kinase 2-beta (Homo sapiens) (Q14289 whole entry, looked up): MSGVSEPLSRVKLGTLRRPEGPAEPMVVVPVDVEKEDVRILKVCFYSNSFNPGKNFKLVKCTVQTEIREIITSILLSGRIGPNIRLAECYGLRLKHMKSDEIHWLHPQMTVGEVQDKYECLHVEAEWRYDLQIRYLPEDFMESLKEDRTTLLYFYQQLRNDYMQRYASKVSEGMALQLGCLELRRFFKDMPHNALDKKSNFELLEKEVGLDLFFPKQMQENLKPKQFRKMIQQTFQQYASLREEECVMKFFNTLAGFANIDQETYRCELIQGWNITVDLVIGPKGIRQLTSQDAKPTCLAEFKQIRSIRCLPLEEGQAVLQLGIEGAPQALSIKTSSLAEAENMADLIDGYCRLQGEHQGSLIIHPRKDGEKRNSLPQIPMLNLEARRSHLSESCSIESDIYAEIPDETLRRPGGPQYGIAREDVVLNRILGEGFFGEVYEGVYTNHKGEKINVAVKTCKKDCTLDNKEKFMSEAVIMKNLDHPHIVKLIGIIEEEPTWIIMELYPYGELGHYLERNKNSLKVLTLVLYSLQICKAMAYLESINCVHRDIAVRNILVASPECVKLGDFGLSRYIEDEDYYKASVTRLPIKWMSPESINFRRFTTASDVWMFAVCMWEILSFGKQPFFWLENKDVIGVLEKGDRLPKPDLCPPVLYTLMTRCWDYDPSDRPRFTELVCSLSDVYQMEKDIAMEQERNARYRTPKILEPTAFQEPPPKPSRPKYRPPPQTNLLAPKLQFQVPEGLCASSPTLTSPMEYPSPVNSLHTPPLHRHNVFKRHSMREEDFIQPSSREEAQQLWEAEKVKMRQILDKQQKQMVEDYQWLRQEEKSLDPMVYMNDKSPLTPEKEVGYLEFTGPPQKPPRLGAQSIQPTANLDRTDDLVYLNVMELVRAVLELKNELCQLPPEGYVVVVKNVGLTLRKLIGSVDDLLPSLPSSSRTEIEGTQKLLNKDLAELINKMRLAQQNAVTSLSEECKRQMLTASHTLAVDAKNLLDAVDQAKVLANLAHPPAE

[28] = system: Proto-oncogene tyrosine-protein kinase receptor Ret (Homo sapiens), P07949 [V804M]; details: Compound concentration 1000.0 nM
[29] = molecular target: Ribosomal protein S6 kinase alpha-3 (Homo sapiens) (UniProt P51812); details: Compound concentration 1000.0 nM
[30] = molecular target: Ribosomal protein S6 kinase alpha-2 (Homo sapiens) (UniProt Q15349); details: Compound concentration 1000.0 nM
Sequence of Ribosomal protein S6 kinase alpha-2 (Homo sapiens) (Q15349 whole entry): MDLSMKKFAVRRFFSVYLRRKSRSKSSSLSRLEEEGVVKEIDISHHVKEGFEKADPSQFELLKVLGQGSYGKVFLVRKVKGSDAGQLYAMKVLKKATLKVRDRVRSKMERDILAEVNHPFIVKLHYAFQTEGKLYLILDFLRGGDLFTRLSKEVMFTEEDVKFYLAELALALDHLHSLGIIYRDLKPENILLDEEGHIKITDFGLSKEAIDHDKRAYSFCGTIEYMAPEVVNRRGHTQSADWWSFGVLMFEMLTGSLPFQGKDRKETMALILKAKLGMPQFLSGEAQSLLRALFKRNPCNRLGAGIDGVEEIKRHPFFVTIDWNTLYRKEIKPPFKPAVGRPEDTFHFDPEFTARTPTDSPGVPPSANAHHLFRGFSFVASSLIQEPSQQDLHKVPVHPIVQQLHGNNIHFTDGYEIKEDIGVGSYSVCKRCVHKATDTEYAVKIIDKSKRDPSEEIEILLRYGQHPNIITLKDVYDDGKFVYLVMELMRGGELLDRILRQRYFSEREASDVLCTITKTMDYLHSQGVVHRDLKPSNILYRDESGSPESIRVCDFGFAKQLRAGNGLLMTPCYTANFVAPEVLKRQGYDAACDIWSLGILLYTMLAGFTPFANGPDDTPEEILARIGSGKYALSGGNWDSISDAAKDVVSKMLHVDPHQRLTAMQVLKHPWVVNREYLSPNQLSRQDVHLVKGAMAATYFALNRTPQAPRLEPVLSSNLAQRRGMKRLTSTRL

[31] = molecular target: Proto-oncogene tyrosine-protein kinase Src (Homo sapiens) (UniProt P12931); details: Compound concentration 1000.0 nM
[32] = molecular target: Non-receptor tyrosine-protein kinase TYK2 (Homo sapiens) (UniProt P29597); details: Compound concentration 1000.0 nM
[33] = molecular target: Tyrosine-protein kinase Yes (Homo sapiens) (UniProt P07947); details: Compound concentration 1000.0 nM
[34] = molecular target: Tyrosine-protein kinase ZAP-70 (Homo sapiens) (UniProt P43403); details: Compound concentration 1000.0 nM
Sequence of Tyrosine-protein kinase ZAP-70 (Homo sapiens) (P43403 whole entry): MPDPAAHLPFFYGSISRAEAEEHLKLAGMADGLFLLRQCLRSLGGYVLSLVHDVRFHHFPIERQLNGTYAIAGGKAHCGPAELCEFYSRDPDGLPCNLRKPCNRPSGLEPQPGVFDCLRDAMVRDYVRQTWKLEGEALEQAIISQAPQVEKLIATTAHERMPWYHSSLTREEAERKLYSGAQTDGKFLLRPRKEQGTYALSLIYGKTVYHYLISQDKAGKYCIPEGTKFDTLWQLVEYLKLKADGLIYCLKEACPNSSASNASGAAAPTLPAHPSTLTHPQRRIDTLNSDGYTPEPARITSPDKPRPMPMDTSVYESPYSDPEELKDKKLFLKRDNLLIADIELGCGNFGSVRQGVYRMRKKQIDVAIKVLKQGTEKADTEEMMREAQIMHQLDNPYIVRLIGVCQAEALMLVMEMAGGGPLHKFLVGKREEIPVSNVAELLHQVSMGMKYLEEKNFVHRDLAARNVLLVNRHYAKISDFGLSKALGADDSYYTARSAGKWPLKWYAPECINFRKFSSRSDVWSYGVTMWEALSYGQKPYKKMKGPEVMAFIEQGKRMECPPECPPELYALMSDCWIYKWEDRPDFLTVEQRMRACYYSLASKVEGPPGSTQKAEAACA

[35] = molecular target: 5-hydroxytryptamine receptor 1E (Homo sapiens) (UniProt P28566); details: Compound concentration 10.0 uM
Sequence of 5-hydroxytryptamine receptor 1E (Homo sapiens) (P28566 whole entry): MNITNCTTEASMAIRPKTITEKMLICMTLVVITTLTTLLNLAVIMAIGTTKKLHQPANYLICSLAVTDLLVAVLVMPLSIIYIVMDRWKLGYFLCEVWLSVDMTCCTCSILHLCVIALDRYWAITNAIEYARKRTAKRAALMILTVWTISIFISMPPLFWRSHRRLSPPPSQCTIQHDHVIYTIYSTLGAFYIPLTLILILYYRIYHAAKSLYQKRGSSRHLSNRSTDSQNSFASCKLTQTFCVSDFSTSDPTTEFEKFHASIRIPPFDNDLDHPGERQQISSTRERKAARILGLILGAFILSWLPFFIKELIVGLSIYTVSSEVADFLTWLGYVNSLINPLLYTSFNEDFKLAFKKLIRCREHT

[36] = molecular target: Muscarinic acetylcholine receptor M4 (Homo sapiens) (UniProt P08173); details: Compound concentration 10.0 uM
D(2) dopamine receptor = D(2) dopamine receptor (Homo sapiens, UniProt P14416); details: Compound concentration 10.0 uM
[37] = molecular target: 5-hydroxytryptamine receptor 2A (Homo sapiens, UniProt P28223); details: Compound concentration 10.0 uM
[38] = molecular target: Sodium-dependent serotonin transporter (Homo sapiens, UniProt P31645); assay: GPCRScan assay: inhibition of SERT; parameters: radioligand conc. used [nm] 1.5 – 2.0, parental cells stable HEK
Histamine H1 receptor = Histamine H1 receptor (Homo sapiens, UniProt P35367); assay: GPCRScan assay: inhibition of H1; parameters: radioligand conc. used [nm] 0.6 – 2.0, parental cells stable HEK
Sequence of Histamine H1 receptor (P35367 whole entry): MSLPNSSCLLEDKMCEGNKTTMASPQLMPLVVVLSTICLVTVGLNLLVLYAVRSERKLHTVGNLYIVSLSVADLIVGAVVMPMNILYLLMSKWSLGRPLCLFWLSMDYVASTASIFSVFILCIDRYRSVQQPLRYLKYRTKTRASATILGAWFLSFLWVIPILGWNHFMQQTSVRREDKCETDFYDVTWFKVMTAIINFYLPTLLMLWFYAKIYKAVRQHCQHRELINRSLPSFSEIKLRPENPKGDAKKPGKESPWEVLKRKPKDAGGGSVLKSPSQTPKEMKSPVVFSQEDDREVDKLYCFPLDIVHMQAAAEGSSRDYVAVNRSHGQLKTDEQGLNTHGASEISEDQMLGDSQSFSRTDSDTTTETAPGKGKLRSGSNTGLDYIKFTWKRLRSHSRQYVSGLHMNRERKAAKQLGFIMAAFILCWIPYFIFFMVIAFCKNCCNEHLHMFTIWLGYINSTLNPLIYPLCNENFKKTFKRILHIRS

Sequence of Sodium-dependent noradrenaline transporter (P23975 whole entry): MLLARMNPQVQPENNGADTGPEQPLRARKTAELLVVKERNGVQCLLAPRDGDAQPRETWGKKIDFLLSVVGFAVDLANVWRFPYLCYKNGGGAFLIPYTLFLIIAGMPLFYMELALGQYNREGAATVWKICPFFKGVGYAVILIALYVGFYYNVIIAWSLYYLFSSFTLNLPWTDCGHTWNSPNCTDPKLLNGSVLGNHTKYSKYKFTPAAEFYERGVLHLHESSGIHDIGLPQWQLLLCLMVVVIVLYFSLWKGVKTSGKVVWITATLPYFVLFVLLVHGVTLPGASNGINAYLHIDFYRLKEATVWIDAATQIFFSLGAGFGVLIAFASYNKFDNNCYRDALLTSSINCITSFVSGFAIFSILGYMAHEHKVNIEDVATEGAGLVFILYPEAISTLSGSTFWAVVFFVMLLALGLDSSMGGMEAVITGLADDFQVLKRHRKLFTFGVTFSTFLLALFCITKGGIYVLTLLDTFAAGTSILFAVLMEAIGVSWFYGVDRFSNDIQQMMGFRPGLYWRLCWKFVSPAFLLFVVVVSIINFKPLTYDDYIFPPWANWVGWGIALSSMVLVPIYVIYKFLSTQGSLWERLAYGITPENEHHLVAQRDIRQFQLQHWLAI

Row | Structure (SMILES) | Ki ([1]; read-out: Ki) | residual activity [7] | residual activity [8] | residual activity [9] | residual activity [10] | residual activity [11] | residual activity [12] | residual activity [13] | residual activity [14] | residual activity [15] | residual activity [16] | residual activity [17] | residual activity [18] | residual activity [19] | residual activity [20] | residual activity [21] | residual activity [22] | residual activity [23] | residual activity [24] | residual activity [25] | further results
1 | CNCc1ccccc1-c1csc([C@@H](C)Nc2nc(C)nc3cc(OC)c(OC)cc23)c1 [BAY-293] | 0.982 µM | 94% | 92% | 97% | 77% | 91% | 100% | 86% | 61% | 100% | 98% | 86% | 100% | 99% | 100% | 88% | 67% | 88% | 76% | 91% | Ki ([1]; read-out: pKi (converted)): 0.881 µM; Ki ([2]; read-out: Ki): 0.972 µM; Ki ([2]; read-out: pKi (converted)): 0.955 µM; % residual kinase activity [3]: 74%; % residual kinase activity [4]: 85%; % residual kinase activity [5]: 87%; % residual kinase activity [6]: 88%; residual activity [26]: 82%; residual activity [27]: 100%; residual activity [28]: 90%; residual activity [29]: 76%; residual activity [30]: 100%; residual activity [31]: 100%; residual activity [32]: 99%; residual activity [33]: 100%; residual activity [34]: 87%; inhibition [35]: 5.81%; inhibition [36]: 43.1%; inhibition (D(2) dopamine receptor): 67%; inhibition [37]: 110%
2 | CNCc1ccccc1-c1csc([C@H](C)Nc2nc(C)nc3cc(OC)c(OC)cc23)c1 [BAY-294] | 2.08 µM | 94% | 91% | 100% | 99% | 94% | 100% | 85% | 100% | 100% | 91% | 76% | 90% | 100% | 97% | 100% | 78% | 97% | 71% | 97% | Ki [38]: 4.23 µM; Ki (Histamine H1 receptor; read-out: Ki): 1.37 µM; Ki (Histamine H1 receptor; read-out: pKi (converted)): 1.35 µM; residual activity [26]: 83%; residual activity [27]: 100%; residual activity [28]: 100%; residual activity [29]: 78%; residual activity [30]: 100%; residual activity [31]: 100%; residual activity [32]: 100%; residual activity [33]: 100%; residual activity [34]: 100%; inhibition [35]: 10.8%; inhibition [36]: 59.4%
